Here are results for 4 compounds from paper PMC3390896, “The Distribution and Physiological Effects of the Myoinhibiting Peptides in the Kissing Bug, Rhodnius Prolixus” (Frontiers in Neuroscience, 2012).

Like-named read-outs stand apart in the source and are kept apart here. Where a SMILES comes first, the peptide text is derived from it. Bridges are numbered along the chain shown (N, C = ends). Where no end group is shown, it is not given here.

Broadly, the EC50 is the concentration that produces a half-maximal response. As usually defined, the IC50 is the concentration that gives 50% inhibition.

One experiment deals with L. migratoria hindgut. To be noted: ref Schoofs et al., [1991]; cited from earlier work. The text has this:
As shown in many insects (and as indicated by their name) MIPs are inhibitory of visceral muscle contraction. Thus, in R. prolixus, MIPs inhibit contractions of the hindgut in a dose-dependent manner. This is true for Rhopr-MIP-4 and for Rhopr-MIP-7. […] The thresholds for these Rhopr-MIPs were approximately the same. These threshold concentrations are lower than the threshold concentrations determined for the suppression of hindgut muscle contractions in L. migrator ...

Experiment [1] deals with T1, Drosophila melanogaster sex peptide receptor (Drome-SPR) (Drosophila melanogaster, UniProt Q8SWR3).
T1 construct: expressed in transfected cells; host or cells: CHO-WTA11 cells (expressing apoaequorin and Gα16)
T1 sequence (Q8SWR3 1-435): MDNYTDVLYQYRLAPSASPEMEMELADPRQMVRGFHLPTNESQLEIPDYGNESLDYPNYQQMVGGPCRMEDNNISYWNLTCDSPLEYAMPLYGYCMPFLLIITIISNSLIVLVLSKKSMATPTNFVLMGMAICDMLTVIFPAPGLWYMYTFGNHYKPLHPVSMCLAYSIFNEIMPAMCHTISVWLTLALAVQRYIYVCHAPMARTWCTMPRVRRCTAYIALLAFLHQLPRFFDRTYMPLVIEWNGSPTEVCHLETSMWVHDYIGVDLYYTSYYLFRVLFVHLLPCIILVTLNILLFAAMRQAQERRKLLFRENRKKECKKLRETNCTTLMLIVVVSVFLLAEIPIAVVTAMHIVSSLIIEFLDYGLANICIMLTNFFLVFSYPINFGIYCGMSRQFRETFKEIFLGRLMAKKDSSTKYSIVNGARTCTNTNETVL
Kind of experiment: Functional aequorin-based Drome-SPR assay in CHO-WTA11 cells. It is filed as cell-based. The conditions noted are these: CHO cells coexpressing aequorin, Gα16 and Drosophila SPR; aequorin luminescence; three independent measurements done in triplicate. Here is the method: Drome-SPR expression vector (described by Poels et al., [2010]) transfected and mock transfected (negative control) CHO-WTA11 cells (expressing apoaequorin and Gα16) were grown until 90% confluency, detached using PBS with 100 μM EDTA, spun (6 min, 150 g) and resuspended at 5 × 10^6 cells/mL in D-MEM/F-12 without phenol red supplemented with 0.1% BSA. “Coelenterazine h” (Invitrogen) was added to a concentration of 5 μM and the cells were incubated in the dark at room temperature for 3–4 h. After coelenterazine loading, cells were diluted 10-fold and incubated for 30 min. Test compounds were dissolved in 50 μL D-MEM/F-12 supplemented with 0.1% BSA and dispensed in triplicate into the wells of a white 96-well plate. Light emission was recorded (Mithras LB940, Berthold) for 30 s immediately after injection of 50 μL cell suspension into each well. Cells were then lysed by a second injection of 50 μL 0.3% Triton X-100 and monitored during 8 s. Data were collected using MikroWin2000 (Mikrotek Laborsysteme Gmbh).

In the next experiment the test system is R. prolixus hindgut. Kind of experiment: R. prolixus hindgut contraction assay (spontaneous contractions, force transducer). More on the design: species or system Rhodnius prolixus. The conditions noted are these: mean of five to six preparations. The text has this:
Hindguts from female adult R. prolixus were dissected under R. prolixus saline, leaving a small portion of the ventral cuticle attached to the posterior end. The preparation was placed in a shallow trough molded into a Sylgard-coated petri dish. The preparation was secured to the dish by pinning the cuticle using minuten pins. The anterior end of the hindgut was attached to an AE875 miniature force transducer (Aksjeselskapet Mikro-Elektronikk, Norway) using a strand of silk. Muscle activity was monitored on a linear flat-bed chart recorder connected to a force transducer through an amplifier. Isolated hindguts were maintained in 200 μL of saline at room temperature. Working concentrations of Rhopr-MIP-4 or Rhopr-MIP-7 were applied by removing 100 μL of saline and replacing it with the same volume of peptide that yielded final concentrations of 10^−11 to 10^−6 M. The peptides were washed from the preparation using saline between trials. The effects of the peptides on hindgut contractions were monitored over a 5 min time period.
Responses to Rhopr-MIP-4 and Rhopr-MIP-7 were quantified by dividing the frequency of contractions during the second minute after application, by the frequency of contractions during the 1 min interval prior to peptide application.

In experiment [2] the target is T1, Drosophila melanogaster sex peptide receptor (Drome-SPR). Set-up: method as in Poels et al., [2010]. To be noted: same aequorin assay; ref Poels et al., [2010]; cited from earlier work. Here is the method: The activity profiles of Rhopr-MIP-4 and -7 were tested in the functional aequorin-based Drome-SPR assays (Figure 5).
Where [3] appears, read: frequency in second minute after application divided by frequency in 1 min before, read-out: IC50 for frequency of spontaneous hindgut contractions.
The mark [4] stands for this setting: isolated hindgut of female adult R. prolixus, saline, room temperature, read-out: IC50 for amplitude of spontaneous hindgut contractions.

With AWQDLNAGW-NH2 [Lom-MIP], in the experiment on L. migratoria hindgut, the “threshold concentration for suppression of hindgut muscle contractions” value is recorded as 1.8 nM.
`CC(C)C[C@H](NC(=O)[C@H](CC(=O)O)NC(=O)[C@H](CO)NC(=O)[C@H](Cc1c[nH]c2ccccc12)NC(=O)[C@H](C)N)C(=O)N[C@@H](CCC(N)=O)C(=O)N[C@@H](CO)C(=O)N[C@@H](CO)C(=O)NCC(=O)N[C@@H](Cc1c[nH]c2ccccc12)C(N)=O` [Rhopr-MIP-4] (H-AWSDLQSSGW-NH2): in experiment [1], the EC50 worked out at 53 nM. Also, the IC50 in the experiment on R. prolixus hindgut (setting [3]) was approximately 20 nM; in the experiment with R. prolixus hindgut (setting [4]) it was approximately 10 nM.
The like results for `CC(C)C[C@H](NC(=O)[C@H](CO)NC(=O)[C@H](CC(N)=O)NC(=O)[C@H](Cc1c[nH]c2ccccc12)NC(=O)[C@H](C)N)C(=O)N[C@@H](Cc1c[nH]cn1)C(=O)NCC(=O)NCC(=O)N[C@@H](Cc1c[nH]c2ccccc12)C(N)=O` [Rhopr-MIP-7] (H-AWNSLHGGW-NH2) were, in that order, 0.59 nM, approximately 20 nM and approximately 100 nM.
As to “Drome-SP: Drosophila sex peptide, 36 amino acids with a core W(X8)W and a C-terminal disulfide bridge (WEWPWNRKPTKFPIPSPNPRDKWCRLNLGPAWGGRC; disulfide 24-36 (inferred); UniProt P05623 20-55, looked up)”, the EC50 in experiment [2] is approximately 15 nM.
